Molecular target: T1, GPRC6A (Homo sapiens, UniProt Q5T6X5)
T1 sequence (Q5T6X5 19-926): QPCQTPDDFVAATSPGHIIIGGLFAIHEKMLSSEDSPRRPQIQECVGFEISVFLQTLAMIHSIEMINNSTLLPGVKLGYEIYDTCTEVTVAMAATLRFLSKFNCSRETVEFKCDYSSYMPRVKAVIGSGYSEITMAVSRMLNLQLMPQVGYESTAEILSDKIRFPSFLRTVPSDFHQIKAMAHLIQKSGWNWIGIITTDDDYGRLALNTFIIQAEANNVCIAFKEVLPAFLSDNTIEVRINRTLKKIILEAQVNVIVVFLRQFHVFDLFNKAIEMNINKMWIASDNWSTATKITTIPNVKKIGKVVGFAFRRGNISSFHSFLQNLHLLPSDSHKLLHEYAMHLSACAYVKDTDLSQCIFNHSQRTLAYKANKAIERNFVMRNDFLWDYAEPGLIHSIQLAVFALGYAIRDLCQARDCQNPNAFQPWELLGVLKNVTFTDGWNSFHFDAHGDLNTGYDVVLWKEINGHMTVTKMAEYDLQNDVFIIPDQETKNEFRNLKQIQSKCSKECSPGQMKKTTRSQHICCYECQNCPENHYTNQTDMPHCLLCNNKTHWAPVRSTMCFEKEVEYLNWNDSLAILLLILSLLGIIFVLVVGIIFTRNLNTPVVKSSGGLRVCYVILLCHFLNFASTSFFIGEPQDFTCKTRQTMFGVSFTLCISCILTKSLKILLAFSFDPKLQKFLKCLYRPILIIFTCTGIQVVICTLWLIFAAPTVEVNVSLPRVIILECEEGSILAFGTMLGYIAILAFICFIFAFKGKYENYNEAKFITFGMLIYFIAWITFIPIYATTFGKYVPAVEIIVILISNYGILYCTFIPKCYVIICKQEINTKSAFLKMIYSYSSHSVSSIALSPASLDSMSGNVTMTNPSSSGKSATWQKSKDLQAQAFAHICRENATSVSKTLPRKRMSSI
Type: cell-based

## CN(C)C(=N)N=C(N)N [metformin, 1,1-dimethylbiguanide]
  EC50: 284 µM

Source: article PMC11370357 (bioRxiv, 2024)
